Test results: ChEMBL document CHEMBL5728557, “Azetidine derivative, preparation method therefor, and use thereof” (2021)

Key:
[1] = molecular target: Voltage-gated inwardly rectifying potassium channel KCNH2 (Homo sapiens, UniProt Q12809); assay: Safety Test: The effect of test compounds on hERG potassium channel were determined using Predictor hERG Fluorescence Polarization Assay at concentrations of 3, 10, and 30 μM.
CYP2D6 = CYP2D6 (Homo sapiens, UniProt P10635); assay: (§1) As such, the compound of the present invention has no significant inhibitory effect on CYP1A2, CYP2D6 and CYP3A4, and thus has no safety issue caused by metabolism interactions among different drugs due to inhibition of the enzymes.
CYP3A4 = CYP3A4 (Homo sapiens, UniProt P08684); assay: as §1
Cytochrome P450 1A2 = molecular target: T1, Cytochrome P450 1A2 (Homo sapiens, UniProt P05177); assay: as §1
T1 sequence (P05177 whole entry): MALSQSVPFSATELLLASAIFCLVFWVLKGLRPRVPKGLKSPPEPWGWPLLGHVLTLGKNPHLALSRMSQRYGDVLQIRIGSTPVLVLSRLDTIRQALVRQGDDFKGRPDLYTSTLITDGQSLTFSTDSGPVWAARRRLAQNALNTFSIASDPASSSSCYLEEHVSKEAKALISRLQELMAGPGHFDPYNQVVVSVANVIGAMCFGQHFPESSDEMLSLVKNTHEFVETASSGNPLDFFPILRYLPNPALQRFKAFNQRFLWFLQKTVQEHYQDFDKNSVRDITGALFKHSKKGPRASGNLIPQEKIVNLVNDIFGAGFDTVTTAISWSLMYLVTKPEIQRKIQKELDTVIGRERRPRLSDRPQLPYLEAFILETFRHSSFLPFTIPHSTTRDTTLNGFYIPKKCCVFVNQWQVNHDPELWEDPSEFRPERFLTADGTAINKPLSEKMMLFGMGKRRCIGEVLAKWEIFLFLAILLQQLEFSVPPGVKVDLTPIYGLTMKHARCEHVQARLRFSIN

Chain of Voltage-gated inwardly rectifying potassium channel KCNH2 (Q12809 whole entry): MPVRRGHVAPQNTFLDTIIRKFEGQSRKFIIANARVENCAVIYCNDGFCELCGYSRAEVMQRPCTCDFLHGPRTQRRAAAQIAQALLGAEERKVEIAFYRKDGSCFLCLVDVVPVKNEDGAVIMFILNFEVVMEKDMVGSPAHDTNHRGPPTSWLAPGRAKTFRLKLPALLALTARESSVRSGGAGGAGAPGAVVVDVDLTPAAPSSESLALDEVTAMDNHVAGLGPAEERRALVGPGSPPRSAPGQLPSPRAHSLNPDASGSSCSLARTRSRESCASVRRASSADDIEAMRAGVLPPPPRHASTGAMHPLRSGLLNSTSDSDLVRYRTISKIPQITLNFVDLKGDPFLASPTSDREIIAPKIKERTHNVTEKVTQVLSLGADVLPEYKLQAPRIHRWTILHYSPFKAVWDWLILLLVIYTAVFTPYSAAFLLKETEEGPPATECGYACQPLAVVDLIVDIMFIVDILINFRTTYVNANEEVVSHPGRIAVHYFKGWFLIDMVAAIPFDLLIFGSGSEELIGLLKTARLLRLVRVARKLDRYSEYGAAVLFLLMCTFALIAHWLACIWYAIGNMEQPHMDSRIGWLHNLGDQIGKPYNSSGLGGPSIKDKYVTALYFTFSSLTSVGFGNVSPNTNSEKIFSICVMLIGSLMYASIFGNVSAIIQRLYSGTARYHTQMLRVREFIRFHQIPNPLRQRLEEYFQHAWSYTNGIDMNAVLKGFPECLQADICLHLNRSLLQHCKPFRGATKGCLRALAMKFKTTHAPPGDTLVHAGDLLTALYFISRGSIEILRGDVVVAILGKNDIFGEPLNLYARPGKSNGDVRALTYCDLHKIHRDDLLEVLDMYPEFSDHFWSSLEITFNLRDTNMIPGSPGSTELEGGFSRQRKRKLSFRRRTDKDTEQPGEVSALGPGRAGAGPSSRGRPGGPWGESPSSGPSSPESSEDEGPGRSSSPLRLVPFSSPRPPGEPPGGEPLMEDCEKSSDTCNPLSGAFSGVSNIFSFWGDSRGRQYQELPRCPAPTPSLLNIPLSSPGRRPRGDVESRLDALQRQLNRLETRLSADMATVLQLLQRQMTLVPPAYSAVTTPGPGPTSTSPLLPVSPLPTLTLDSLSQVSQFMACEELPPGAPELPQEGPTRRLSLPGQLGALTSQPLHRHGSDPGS
Chain of CYP3A4 (P08684 whole entry): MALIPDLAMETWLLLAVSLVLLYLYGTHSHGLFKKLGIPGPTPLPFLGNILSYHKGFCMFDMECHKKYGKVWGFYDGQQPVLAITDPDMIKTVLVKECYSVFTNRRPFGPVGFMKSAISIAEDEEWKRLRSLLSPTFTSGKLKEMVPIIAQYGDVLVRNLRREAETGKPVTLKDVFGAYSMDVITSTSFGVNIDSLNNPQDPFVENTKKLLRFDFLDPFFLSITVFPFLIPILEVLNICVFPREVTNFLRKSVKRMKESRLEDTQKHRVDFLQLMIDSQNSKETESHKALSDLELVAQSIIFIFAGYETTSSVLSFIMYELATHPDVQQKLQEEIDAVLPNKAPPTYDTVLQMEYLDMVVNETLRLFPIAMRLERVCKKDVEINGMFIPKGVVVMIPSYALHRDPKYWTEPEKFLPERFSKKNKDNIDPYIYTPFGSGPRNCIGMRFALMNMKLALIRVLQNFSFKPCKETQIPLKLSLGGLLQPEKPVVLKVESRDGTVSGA
Chain of CYP2D6 (P10635 whole entry): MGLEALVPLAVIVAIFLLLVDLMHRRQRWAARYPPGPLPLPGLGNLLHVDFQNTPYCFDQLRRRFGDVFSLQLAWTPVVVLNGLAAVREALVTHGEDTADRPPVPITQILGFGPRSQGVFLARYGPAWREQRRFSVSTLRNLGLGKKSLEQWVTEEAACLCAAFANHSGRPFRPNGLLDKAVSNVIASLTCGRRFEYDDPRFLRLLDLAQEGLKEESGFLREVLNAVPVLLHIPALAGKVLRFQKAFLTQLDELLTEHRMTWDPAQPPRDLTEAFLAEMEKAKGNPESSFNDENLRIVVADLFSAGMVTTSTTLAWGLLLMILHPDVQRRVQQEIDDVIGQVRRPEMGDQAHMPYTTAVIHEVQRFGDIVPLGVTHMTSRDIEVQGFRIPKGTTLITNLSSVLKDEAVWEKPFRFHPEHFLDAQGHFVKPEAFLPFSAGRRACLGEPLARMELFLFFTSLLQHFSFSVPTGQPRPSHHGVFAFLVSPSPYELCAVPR

For `Cc1nn(C2(CC#N)CN(S(=O)(=O)C(C)C)C2)cc1-c1ncnc2[nH]ccc12`, the IC50 [1] was over 30 µM, the IC50 (CYP2D6) was over 10 µM and the IC50 (CYP3A4) was over 10 µM. The IC50 (Cytochrome P450 1A2) was over 10 µM.
